Read-outs that look alike come from different tables or passages of the source.
Assays:
rabbit PXR = target: T1, rabbit PXR (Oryctolagus cuniculus, UniProt Q9TU02); assay: PXR activation luciferase reporter assay, rabbit PXR; conditions: for Rabbit PXR efficacy, ε: relative to 50 μM 5α-pregnan-3,20-dione, assigned an efficacy of 1.0; for Rabbit PXR Activity: -log(EC50), EC50 in molar units
T1 sequence (Q9TU02 1-411): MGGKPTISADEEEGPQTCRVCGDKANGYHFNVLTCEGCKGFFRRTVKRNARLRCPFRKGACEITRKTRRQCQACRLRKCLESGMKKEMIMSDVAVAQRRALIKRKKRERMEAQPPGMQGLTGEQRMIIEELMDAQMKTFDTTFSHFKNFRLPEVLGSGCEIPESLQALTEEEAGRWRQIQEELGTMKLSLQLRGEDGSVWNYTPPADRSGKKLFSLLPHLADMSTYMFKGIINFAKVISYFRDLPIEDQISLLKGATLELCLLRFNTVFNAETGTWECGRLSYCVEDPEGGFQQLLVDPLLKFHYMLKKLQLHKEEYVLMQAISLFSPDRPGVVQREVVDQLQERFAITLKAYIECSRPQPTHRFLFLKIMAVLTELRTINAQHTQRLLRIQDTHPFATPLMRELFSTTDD

human PXR [1] = target: T2, human PXR (Homo sapiens, UniProt O75469)
T2 sequence (O75469 1-434): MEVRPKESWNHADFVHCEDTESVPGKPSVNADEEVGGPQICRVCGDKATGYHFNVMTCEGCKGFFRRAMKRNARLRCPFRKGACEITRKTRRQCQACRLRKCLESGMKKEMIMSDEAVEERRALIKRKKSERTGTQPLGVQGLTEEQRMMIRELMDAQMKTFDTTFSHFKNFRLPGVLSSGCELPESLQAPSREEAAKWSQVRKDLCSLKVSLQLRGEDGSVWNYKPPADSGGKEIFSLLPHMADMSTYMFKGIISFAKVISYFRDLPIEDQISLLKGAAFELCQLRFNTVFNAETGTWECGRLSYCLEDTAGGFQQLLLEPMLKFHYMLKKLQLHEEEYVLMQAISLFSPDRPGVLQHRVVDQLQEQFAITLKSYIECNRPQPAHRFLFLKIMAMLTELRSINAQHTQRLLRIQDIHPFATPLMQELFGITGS

zebrafish PXR [2] = target: T3, zebrafish PXR (Danio rerio, UniProt A5WYG8); conditions: for zfPXR Activity: -log(EC50), EC50 in molar units, activation of zebrafish PXR
T3 sequence (A5WYG8 144-430): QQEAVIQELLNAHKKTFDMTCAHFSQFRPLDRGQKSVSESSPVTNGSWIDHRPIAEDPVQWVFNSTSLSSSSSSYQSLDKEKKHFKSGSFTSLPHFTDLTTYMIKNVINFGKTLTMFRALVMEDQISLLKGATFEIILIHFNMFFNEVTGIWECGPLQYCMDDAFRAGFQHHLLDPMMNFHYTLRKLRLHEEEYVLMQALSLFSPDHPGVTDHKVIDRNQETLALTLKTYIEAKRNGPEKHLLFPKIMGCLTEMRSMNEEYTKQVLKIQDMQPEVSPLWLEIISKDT

human PXR [3] = target: T2, human PXR; assay: PXR activation luciferase reporter assay, human PXR in HepG2-NTCP cells
rat PXR = target: T4, rat PXR (Rattus norvegicus, UniProt Q9R1A7); conditions: for Rat PXR Activity: -log(EC50), EC50 in molar units
T4 sequence (Q9R1A7 1-431): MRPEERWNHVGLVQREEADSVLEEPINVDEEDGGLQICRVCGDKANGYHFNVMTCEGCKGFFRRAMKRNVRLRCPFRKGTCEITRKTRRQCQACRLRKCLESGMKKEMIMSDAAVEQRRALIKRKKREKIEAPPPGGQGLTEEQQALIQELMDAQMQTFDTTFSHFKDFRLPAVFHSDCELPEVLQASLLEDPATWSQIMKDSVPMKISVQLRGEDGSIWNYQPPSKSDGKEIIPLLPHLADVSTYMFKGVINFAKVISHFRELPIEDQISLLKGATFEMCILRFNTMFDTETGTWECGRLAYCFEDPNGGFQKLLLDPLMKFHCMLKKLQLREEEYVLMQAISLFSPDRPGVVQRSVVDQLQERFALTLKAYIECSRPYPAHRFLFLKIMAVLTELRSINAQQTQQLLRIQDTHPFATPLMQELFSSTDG

chicken PXR [4] = target: T5, chicken PXR (Gallus gallus, UniProt Q9DFH3)
T5 sequence (Q9DFH3 1-391): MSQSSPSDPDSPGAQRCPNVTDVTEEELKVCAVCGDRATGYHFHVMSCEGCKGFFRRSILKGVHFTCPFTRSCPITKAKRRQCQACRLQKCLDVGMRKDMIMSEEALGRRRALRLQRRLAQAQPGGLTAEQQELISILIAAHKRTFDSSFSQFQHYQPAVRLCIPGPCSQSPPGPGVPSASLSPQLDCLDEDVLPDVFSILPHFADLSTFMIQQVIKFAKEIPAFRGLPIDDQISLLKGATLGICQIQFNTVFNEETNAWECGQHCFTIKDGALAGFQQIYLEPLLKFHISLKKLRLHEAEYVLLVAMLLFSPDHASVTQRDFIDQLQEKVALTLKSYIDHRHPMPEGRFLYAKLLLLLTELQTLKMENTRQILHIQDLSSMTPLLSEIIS

HepG2 cells [5] = test system: HepG2 cells
mouse PXR = target: T6, mouse PXR (Mus musculus, UniProt O54915); conditions: for Mouse PXR Activity: -log(EC50), EC50 in molar units
T6 sequence (O54915 1-431): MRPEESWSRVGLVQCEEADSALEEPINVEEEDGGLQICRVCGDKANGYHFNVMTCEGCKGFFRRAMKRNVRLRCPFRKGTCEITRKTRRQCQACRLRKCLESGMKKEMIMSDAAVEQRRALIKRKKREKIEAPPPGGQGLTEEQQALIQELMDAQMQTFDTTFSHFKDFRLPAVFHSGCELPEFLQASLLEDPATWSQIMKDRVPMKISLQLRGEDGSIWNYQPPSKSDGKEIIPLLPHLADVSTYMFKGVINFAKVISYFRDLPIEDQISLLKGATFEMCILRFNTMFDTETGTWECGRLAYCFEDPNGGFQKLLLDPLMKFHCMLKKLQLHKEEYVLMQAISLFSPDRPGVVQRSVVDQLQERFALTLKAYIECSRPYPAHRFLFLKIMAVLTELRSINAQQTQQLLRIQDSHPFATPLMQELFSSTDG

zebrafish PXR [6] = target: T3, zebrafish PXR; assay: cell-based
chicken PXR [7] = target: T5, chicken PXR; assay: cell-based
HepG2 cells [8] = assay: Toxicity assays in HepG2 cells (MTT and alamar blue reduction); conditions: lowest concentration that produced significant toxicity in the HepG2 cells
[9] = -log(EC50), EC50 in molar units, activation of human PXR
[10] = -log(EC50), EC50 in molar units
[11] = hPXR Activity, -log(EC50), EC50 in molar units, activation of human PXR
[12] = relative to 20 μM pregnenolone 16α-carbonitrile, assigned an efficacy of 1.0

SMILES: CC(CCC(=O)NCC(=O)O)C1CCC2C3CCC4CC(O)CCC4(C)C3CC(O)C12C (stereo not shown) [BI009, Glycodeoxycholic acid]
- EC50 (rabbit PXR): 15.5 µM
- Rabbit PXR efficacy, ε (rabbit PXR): 0.40

SMILES: c1ccc2c(c1)cc1ccc3cccc4ccc2c1c34 [MI3, Benzo [a]pyren]
- hPXR Efficacy (human PXR [1]): 0.55
- zfPXR Efficacy (zebrafish PXR [2]): 0.06
- zfPXR Activity (zebrafish PXR [2]): 4.00
- hPXR Activity (human PXR [3]; [9]): 4.75
- Rat PXR efficacy, ε (rat PXR): 0.45
- Rat PXR Activity (rat PXR): 4.85
- Chicken PXR efficacy, ε (chicken PXR [4]): 0.50
- Chicken PXR Activity (chicken PXR [4]; [10]): 4.40
- Toxicity (HepG2 cells [5]): 100 µM
- Mouse PXR efficacy, ε (mouse PXR): 0.94
- Mouse PXR Activity (mouse PXR): 4.86
- Rabbit PXR Activity (rabbit PXR): No effect

SMILES: CC(C)CCC[C@@H](C)[C@H]1CC[C@H]2[C@@H]3[C@H](O)C=C4C[C@@H](O)CC[C@]4(C)[C@H]3CC[C@]12C [BI047, 7α-Hydroxycholesterol]
- zfPXR Activity (zebrafish PXR [2]): None
- hPXR Activity (human PXR [3]; [9]): None
- Rat PXR Activity (rat PXR): No effect
- Chicken PXR Activity (chicken PXR [4]; [10]): No effect
- Toxicity (HepG2 cells [5]): None
- Mouse PXR Activity (mouse PXR): No effect
- Rabbit PXR Activity (rabbit PXR): No effect

SMILES: C[C@@]12CCC[C@H]1[C@@H]1CC[C@H]3C[C@@H](O)CC[C@]3(C)[C@H]1CC2 [AN20, 5α-Androstan-3β-ol]
- hPXR Efficacy (human PXR [1]; human): 0.43
- zfPXR Efficacy (zebrafish PXR [2]; zebrafish): 1.66
- EC50 (human PXR [3]; [11]): 0.794 µM
- Toxicity (HepG2 cells [5]; human, 24 hr): 50 µM
- EC50 (zebrafish PXR [6]): 2.69 µM

SMILES: C[C@H](CCC(=O)NCCS(=O)(=O)O)[C@H]1CC[C@H]2[C@@H]3CC[C@@H]4C[C@H](O)CC[C@]4(C)[C@H]3C[C@H](O)[C@]12C [BI010, Taurodeoxycholic acid]
- EC50 (rabbit PXR): 14.5 µM
- Rabbit PXR efficacy, ε (rabbit PXR): 0.15

SMILES: C[C@H](CCC(=O)O)[C@H]1CC[C@H]2[C@@H]3[C@H](O)[C@@H](O)[C@@H]4C[C@H](O)CC[C@]4(C)[C@H]3CC[C@]12C [BI018, α-Muricholic acid]
- Rat PXR Activity (rat PXR): 3.95
- Rat PXR efficacy, ε (rat PXR; [12]): 1.31
- Mouse PXR Activity (mouse PXR): 4.59
- Mouse PXR efficacy, ε (mouse PXR; [12]): 2.63

SMILES: C[C@@]12CCC[C@H]1[C@@H]1CC[C@@H]3C[C@H](O)CC[C@]3(C)[C@H]1CC2 [AN23, 5β-Androstan-3α-ol]
- hPXR Efficacy (human PXR [1]; human): 1.12
- zfPXR Efficacy (zebrafish PXR [2]; zebrafish): 0.33
- EC50 (human PXR [3]; [11]): 1.41 µM
- Toxicity (HepG2 cells [5]): None
- EC50 (zebrafish PXR [6]): 2.57 µM

SMILES: CC(CCC(=O)O)C1CCC2C3C(O)C(O)C4CC(O)CCC4(C)C3CCC12C (stereo not shown) [BI017, ω-Muricholic acid]
- Rat PXR Activity (rat PXR): No effect
- Mouse PXR Activity (mouse PXR): No effect

SMILES: CC(=O)[C@H]1[C@H](C#N)C[C@H]2[C@@H]3CC=C4C[C@@H](O)CC[C@]4(C)[C@H]3CC[C@@]21C [PR13, 5-Pregnen-16α-cyano-3β-ol-20-one]
- zfPXR Activity (zebrafish PXR [2]): None
- hPXR Activity (human PXR [3]; [9]): None
- Rat PXR efficacy, ε (rat PXR): 6.20 (ε = 1.0)
- Rat PXR Activity (rat PXR): 6.20 (ε = 1.0)
- Toxicity (HepG2 cells [5]): None
- Mouse PXR efficacy, ε (mouse PXR): 6.41 (ε = 1.0)
- Mouse PXR Activity (mouse PXR): 6.41 (ε = 1.0)

SMILES: CC(CCC(=O)NCC(=O)O)C1CCC2C3C(O)CC4CC(O)CCC4(C)C3CCC12C (stereo not shown) [BI006, Glycochenodeoxycholic acid]
- EC50 (chicken PXR [7]): 25.1 µM
- Chicken PXR efficacy, ε (chicken PXR [4]; chicken): 0.41

SMILES: C[C@H](CCC(=O)NCCS(=O)(=O)O)[C@H]1CC[C@H]2[C@@H]3[C@@H](O)[C@@H](O)[C@@H]4C[C@H](O)CC[C@]4(C)[C@H]3CC[C@]12C [BI046, 5β-Cholanic acid-3α,6β,7β-triol N-(2-sulfoethyl)-amide]
- Toxicity (HepG2 cells [8]): None
- zfPXR Activity (zebrafish PXR [2]): None
- hPXR Activity (human PXR [3]; [9]): None
- Rat PXR Activity (rat PXR): No effect
- Chicken PXR Activity (chicken PXR [4]; [10]): No effect
- Mouse PXR Activity (mouse PXR): No effect
- Rabbit PXR Activity (rabbit PXR): No effect

SMILES: C[C@H](CCC(=O)O)[C@H]1CC[C@H]2[C@@H]3[C@@H](O)[C@@H](O)[C@@H]4C[C@H](O)CC[C@]4(C)[C@H]3CC[C@]12C [BI019, β-Muricholic acid]
- Rat PXR Activity (rat PXR): No effect
- Mouse PXR Activity (mouse PXR): No effect

SMILES: C[C@H](CCC(=O)NCC(=O)O)[C@H]1CC[C@H]2[C@@H]3[C@H](O)C[C@@H]4C[C@H](O)CC[C@]4(C)[C@H]3C[C@H](O)[C@]12C [BI021, Glycocholic acid]
- Rat PXR Activity (rat PXR): No effect
- Chicken PXR Activity (chicken PXR [4]): No effect
- Mouse PXR Activity (mouse PXR): No effect

SMILES: C[C@]12CCC(=O)C=C1CC[C@@H]1[C@@H]2CC[C@]2(C)C(=O)CC[C@@H]12 [AN7, 4-Androsten-3,17-dione]
- hPXR Efficacy (human PXR [1]; human): 0.59
- zfPXR Efficacy (zebrafish PXR [2]; relative to 20 μM 5α-androstan-3α-ol, assigned an efficacy of 1.0): 0.14
- EC50 (human PXR [3]; Human PXR EC50 (concentration class, Figure 2A), class read from box colour against the key of Figure 2): 11 to 50 µM
- EC50 (human PXR [3]; [11]): 20.4 µM
- Toxicity (HepG2 cells [5]): None
- EC50 (zebrafish PXR [6]; Zebrafish PXR EC50 (concentration class, Figure 2B), class read from box colour, same key as Figure 2A): < 10 µM
- EC50 (zebrafish PXR [6]; zfPXR Activity, -log(EC50), EC50 in molar units, activation of zebrafish PXR): 3.63 µM

SMILES: C[C@H](CCC(=O)O)[C@H]1CC[C@H]2[C@@H]3C(=O)C[C@@H]4C[C@H](O)CC[C@]4(C)[C@H]3C[C@H](O)[C@]12C [BI042, 5β-Cholanic acid-3α,12α-diol-7-one]
- Toxicity (HepG2 cells [8]): None
- zfPXR Activity (zebrafish PXR [2]): None
- hPXR Activity (human PXR [3]; [9]): 4.24
- hPXR Efficacy (human PXR [3]; relative to 10 μM rifampicin, assigned an efficacy of 1.0): 0.49
- Rabbit PXR Activity (rabbit PXR): 4.31
- Rabbit PXR efficacy, ε (rabbit PXR): 1.55

— paper PMC2358886, “Evolution of pharmacologic specificity in the pregnane X receptor” (BMC Evolutionary Biology, 2008)
